These results are taken from US8592395B2, “Therapeutic compounds” (GlaxoSmithKline LLC, priority 2009, dated 2013).

For orientation: IC50 means the point on the concentration scale where inhibition reaches its midpoint. Higher therefore signals lower potency.

For the assay, the system named is HIV. Description: HOS assay (HOS-Luc HIV-1 LTR-luciferase reporter antiviral assay). Particulars: Human immunodeficiency virus 1, 96 h; HOS-Luc cells (HOS-CD4.CCR5 with HIV-1 LTR-luciferase reporter), four-day incubation with virus, luciferase readout. The format is cell-based. The procedure:
HOS-Luc cells were created by introducing an HIV-1 LTR-luciferase reporter into HOS-CD4.CCR5 (NIH AIDS Research and Reference Reagents Program, cat. #3318). The cells were propagated in DMEM complete medium. Cells were split 1:20 by standard trypsinization when confluency reached 80% (roughly every 2 to 3 days).
Black-walled 96-well tissue culture plates were seeded with HOS-Luc at 6×10^3 cells per well in 50 μL DMEM containing 2% FBS and placed in a humidified incubator at 37° C., 5% CO2 overnight. The following day, test compounds were serially diluted in 4-fold increments at 2× the final concentration in DMEM+2% FBS+0.2% DMSO. Diluted compound (50 μL) was transferred to the HOS-Luc cells and the plates were placed in a humidified incubator at 37° C., 5% CO2 for 1 hr. An additional 60 μL of 2× compound was transferred to a clear-walled 96-well tissue culture plate and 60 μL of virus (diluted 1:50 in tissue culture media) was added to each well and thoroughly mixed. The virus input was previously determined by titrating the virus under assay conditions without compound and selecting a dilution that gives a response in the linear range of the curve and a signal to background of at least 30. The HIV/compound mixture (100 μL) was transferred to the black-walled plates containing 100 μL of cells/compound. The plates were placed in a humidified incubator at 37° C., 5% CO2 for four days. Following the four-day incubation, 150 μL of supernatant was removed and 50 μL of reconstituted Luclite (Promega) was added to each well. For cytotoxicity assessment, 50 μL of reconstituted CellTiter-GLo (Promega) was added to each well. Each plate was topsealed and read in a Topcount (Packard) luminometer at 1 s/well.
Raw data from the HOS-Luc assay were expressed as Relative Light Units (RLU) and normalized according to the following formula: (RLU at drug [ ]/RLU no drug)*100=% control
The potency of test compounds are reported as IC50 values derived from the four parameter Hill equation, defined as: y=Vmax*(1−(x^n/(K^n+x^n)))+Y2 Where:
y=normalized response data
Vmax=upper bound of response
Y2=lower bound or baseline of response
As to `Cc1nc2ccccc2n1[C@H]1C[C@H]2CC[C@@H](C1)N2CCC(C)(CNC(=O)C1CCC(F)(F)CC1)c1ccccc1` (stereo partly drawn) [Example 21, 4,4-difluoro-N-{2-methyl-4-[(1R,5S)-3-(2-methyl-1H-benzimidazol-1-yl)-8-azabicyclo[3.2.1]oct-8-yl]-2-phenylbutyl}cyclohexanecarboxamide], the IC50 is 100 to 1000 nM.

In turn, `Cc1nc2ccccc2n1[C@H]1C[C@H]2CC[C@@H](C1)N2CCC(C)(CN(C)C(=O)C1CCC(F)(F)CC1)c1ccccc1` (stereo partly drawn) [Example 22, 4,4-difluoro-N-methyl-N-{2-methyl-4-[(1R,5S)-3-(2-methyl-1H-benzimidazol-1-yl)-8-azabicyclo[3.2.1]oct-8-yl]-2-phenylbutyl}cyclohexanecarboxamide] showed an IC50 of 100 to 1000 nM.

The compound `Cc1nnc(C(C)C)n1[C@@H]1C[C@H]2CC[C@@H](C1)N2CCC(C)(CNC(=O)C1CCC(F)(F)CC1)c1ccccc1` (stereo partly drawn) [Example 23, 4,4-difluoro-N-(2-methyl-4-{(1R,5S)-3-[3-methyl-5-(1-methylethyl)-4H-1,2,4-triazol-4-yl]-8-azabicyclo[3.2.1]oct-8-yl}-2-phenylbutyl)cyclohexanecarboxamide] came in with an IC50 of 100 to 1000 nM.

Turning to `Cc1nnc(C(C)C)n1[C@@H]1C[C@H]2CC[C@@H](C1)N2CCC(C)(CNS(=O)(=O)c1ccccc1)c1ccccc1` (stereo partly drawn) [Example 24, N-(2-methyl-4-{(1R,5S)-3-[3-methyl-5-(1-methylethyl)-4H-1,2,4-triazol-4-yl]-8-azabicyclo[3.2.1]oct-8-yl}-2-phenylbutyl)benzenesulfonamide], the concentration for half-maximal inhibition (IC50) lay in the range of 100 to 1000 nM.
